According to ChEMBL document CHEMBL1201862, “PubChem BioAssay data set” (2004):
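Assay format: 96-well plates, 48-hour exposure. Abbreviation: GI50, concentration required for 50% inhibition of growth.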 Calls of active or inactive are those of the source. Cut-off read from the data, not from the text of the source: active = GI50 up to about 1.1 µM and inactive = higher.

Experiments:
Assay in all cases: inhibition of tumour cell growth, NCI panel, 48 h
MOLT-4 = test system: MOLT-4
NCI-H460 = test system: NCI-H460
SNB-19 = test system: SNB-19
786-0 = test system: 786-0
TK-10 = test system: TK-10
NCI/ADR-RES = test system: NCI/ADR-RES
Hs-578T = test system: Hs-578T
SF-295 = test system: SF-295
T47D = test system: T47D
SK-OV-3 = test system: SK-OV-3
HOP-92 = test system: HOP-92
SK-MEL-2 = test system: SK-MEL-2
NCI-H23 = test system: NCI-H23
NCI-H226 = test system: NCI-H226
COLO 205 = test system: COLO 205
U-251 = test system: U-251
EKVX = test system: EKVX
UACC-257 = test system: UACC-257
A498 = test system: A498
MDA-N = test system: MDA-N
SN12C = test system: SN12C
HT-29 = test system: HT-29
KM12 = test system: KM12
MDA-MB-231 = test system: MDA-MB-231
IGROV-1 = test system: IGROV-1
OVCAR-8 = test system: OVCAR-8
LOX IMVI = test system: LOX IMVI
MCF7 = test system: MCF7
MDA-MB-435 = test system: MDA-MB-435
OVCAR-5 = test system: OVCAR-5
HCT-116 = test system: HCT-116
M14 = test system: M14
NCI-H522 = test system: NCI-H522
RPMI-8226 = test system: RPMI-8226
UACC-62 = test system: UACC-62
SF-539 = test system: SF-539
SF-268 = test system: SF-268
HCT-15 = test system: HCT-15
OVCAR-4 = test system: OVCAR-4
SR = test system: SR
CCRF-CEM = test system: CCRF-CEM
PC-3 = test system: PC-3
HL-60 = test system: HL-60
RXF 393 = test system: RXF 393
A549 = test system: A549
DU-145 = test system: DU-145
Malme-3M = test system: Malme-3M
SK-MEL-28 = test system: SK-MEL-28
UO-31 = test system: UO-31
OVCAR-3 = test system: OVCAR-3
ACHN = test system: ACHN
HCC 2998 = test system: HCC 2998
SNB-75 = test system: SNB-75
SK-MEL-5 = test system: SK-MEL-5
HOP-62 = test system: HOP-62
K562 = test system: K562

With Cc1ccc2c(c1C)C(=O)/C(=C/c1cccc(C)c1C(=O)O)C2 the GI50 (MOLT-4) was 53.2 µM (inactive), the GI50 (NCI-H460) was 65 µM (inactive) and the GI50 (SNB-19) was > 100 µM (inactive). For the same compound, the GI50 (786-0) was > 100 µM (inactive), the GI50 (TK-10) was > 100 µM (inactive) and the GI50 (NCI/ADR-RES) was 59.8 µM (inactive). For the same compound, the GI50 (Hs-578T) was > 86.1 µM (inactive), the GI50 (SF-295) was > 100 µM (inactive) and the GI50 (T47D) was > 100 µM (inactive). The GI50 (SK-OV-3) was 59.8 µM (inactive), the GI50 (HOP-92) was 19.2 µM (inactive) and the GI50 (SK-MEL-2) was > 83.6 µM (inactive). For the same compound, the GI50 (NCI-H23) was > 100 µM (inactive), the GI50 (NCI-H226) was 43.1 µM (inactive) and the GI50 (COLO 205) was > 100 µM (inactive). For the same compound, the GI50 (U-251) was 79.1 µM (inactive), the GI50 (EKVX) was > 100 µM (inactive) and the GI50 (UACC-257) was 57.9 µM (inactive). For the same compound, the GI50 (A498) was > 45.1 µM (inactive), the GI50 (MDA-N) was > 80.5 µM (inactive) and the GI50 (SN12C) was > 71.4 µM (inactive). The GI50 (HT-29) was 85.5 µM (inactive), the GI50 (KM12) was 47.6 µM (inactive) and the GI50 (MDA-MB-231) was > 62.7 µM (inactive). For the same compound, the GI50 (IGROV-1) was > 86.7 µM (inactive), the GI50 (OVCAR-8) was 86.5 µM (inactive) and the GI50 (LOX IMVI) was 44.1 µM (inactive). For the same compound, the GI50 (MCF7) was 25.9 µM (inactive), the GI50 (MDA-MB-435) was 52.7 µM (inactive) and the GI50 (OVCAR-5) was > 100 µM (inactive). The GI50 (HCT-116) was 48.4 µM (inactive), the GI50 (M14) was 63.2 µM (inactive) and the GI50 (NCI-H522) was 40.1 µM (inactive). For the same compound, the GI50 (RPMI-8226) was 71.3 µM (inactive), the GI50 (UACC-62) was 56 µM (inactive) and the GI50 (SF-539) was 69.2 µM (inactive). For the same compound, the GI50 (SF-268) was > 91.4 µM (inactive), the GI50 (HCT-15) was 51.3 µM and the GI50 (OVCAR-4) was > 79.6 µM (inactive). For the same compound, the GI50 (SR) was > 60.5 µM (inactive), the GI50 (CCRF-CEM) was 50.7 µM (inactive) and the GI50 (PC-3) was 57.5 µM (inactive). For the same compound, the GI50 (HL-60) was 48.6 µM (inactive), the GI50 (RXF 393) was 63.1 µM (inactive) and the GI50 (A549) was 79.6 µM (inactive). For the same compound, the GI50 (DU-145) was > 100 µM (inactive), the GI50 (Malme-3M) was 71 µM (inactive) and the GI50 (SK-MEL-28) was 79.3 µM (inactive). The GI50 (UO-31) was 2.2 µM (inactive), the GI50 (OVCAR-3) was 71.6 µM (inactive) and the GI50 (ACHN) was 72.3 µM (inactive). For the same compound, the GI50 (HCC 2998) was 51.5 µM (inactive), the GI50 (SNB-75) was 69.3 µM (inactive) and the GI50 (SK-MEL-5) was 38.9 µM (inactive). The GI50 (HOP-62) was > 55.7 µM (inactive) and the GI50 (K562) was 72.8 µM (inactive).
